Our source for the IC50 values is patent publication US11472769B2, “SSAO inhibitors and use thereof” (Eccogene (Shanghai) Co., Ltd., priority 2019, dated 2022).

Where only a bound is given, the exact number is not on record here.

Type in all cases: biochemical
For one experiment, the target named is recombinant hSSAO (Homo sapiens (Human), UniProt Q16853). In words: SSAO Activity Assay (MAO-Glo assay kit). The settings on record: 40 μM substrate, 30 mins pre-incubation. On the procedure: (§1) The biological activities of the compounds of the present application can be assessed with methods and assays known in the art. For example, the potency of the compounds of the present application can be evaluated with an SSAO Activity Assay. Briefly, compounds of the present application can be applied to recombinant hSSAO, hMAO-A, and hMAO-B isoforms and the amine oxidase activity of the enzymes are measured after the addition and subsequent oxidation of the luminogenic substrate (e.g., with the MAO-Glo assay kit from Promega). The IC50 can be calculated, for example, by fitting the dose response curve using a 4-parameter non-linear regression routine.
(§2) Amine oxidase activity of recombinant hSSAO, hMAO-A, and hMAO-B isoforms are measured using the MAO-Glo assay kit (Promega, V1402). Ten nL test compounds (with DMSO as vehicle, 0.1% v/v for hSSAO, hMAO-A and hMAO-B) were added into assay plates by Echo, and pre-incubated with 5 μL of enzyme for 30 mins at room temperature before the addition of 5 μL of luminogenic substrate. The substrate concentration is 40 μM for human recombinant SSAO, 40 μM for human recombinant MAO-A, and 4 μM for human recombinant MAO-B. The hSSAO and hMAO-A assays were conducted in the MAO-A reaction buffer in the kit, and the MAO-B assay was conducted in the MAO-B reaction buffer. Oxidation of the substrate was conducted for 1 hr, before the addition of detecting reagent according the manufacture's protocol. The IC50 value of the tested compounds was calculated by fitting the dose response curve using a 4-parameter non-linear regression routine.

For the next experiment, the target named is recombinant hMAO-A (Homo sapiens (Human), UniProt P21397). In words: MAO-A activity assay (MAO-Glo assay kit). As to conditions: 40 μM substrate, 30 mins pre-incubation. On the procedure: as §1, §2
In another experiment the target is recombinant hMAO-B (Homo sapiens (Human), UniProt P27338). In words: MAO-B activity assay (MAO-Glo assay kit). As to conditions: 4 μM substrate, 30 mins pre-incubation. As to the method: as §1, §2
Chain of recombinant hMAO-B (P27338 whole entry): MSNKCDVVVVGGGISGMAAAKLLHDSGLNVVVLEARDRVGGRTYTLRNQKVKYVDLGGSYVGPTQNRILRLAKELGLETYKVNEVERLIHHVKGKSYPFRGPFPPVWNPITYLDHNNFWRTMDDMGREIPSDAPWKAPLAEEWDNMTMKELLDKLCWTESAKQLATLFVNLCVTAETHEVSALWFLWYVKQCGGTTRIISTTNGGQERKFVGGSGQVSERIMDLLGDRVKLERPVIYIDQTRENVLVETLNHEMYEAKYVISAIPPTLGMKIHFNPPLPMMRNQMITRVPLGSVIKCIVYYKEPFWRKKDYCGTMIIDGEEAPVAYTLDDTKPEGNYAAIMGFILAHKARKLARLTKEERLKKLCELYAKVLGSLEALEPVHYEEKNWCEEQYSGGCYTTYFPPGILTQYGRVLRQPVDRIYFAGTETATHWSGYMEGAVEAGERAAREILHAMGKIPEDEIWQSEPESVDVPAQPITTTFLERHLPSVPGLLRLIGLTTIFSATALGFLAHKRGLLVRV

Chain of recombinant hMAO-A (P21397 whole entry): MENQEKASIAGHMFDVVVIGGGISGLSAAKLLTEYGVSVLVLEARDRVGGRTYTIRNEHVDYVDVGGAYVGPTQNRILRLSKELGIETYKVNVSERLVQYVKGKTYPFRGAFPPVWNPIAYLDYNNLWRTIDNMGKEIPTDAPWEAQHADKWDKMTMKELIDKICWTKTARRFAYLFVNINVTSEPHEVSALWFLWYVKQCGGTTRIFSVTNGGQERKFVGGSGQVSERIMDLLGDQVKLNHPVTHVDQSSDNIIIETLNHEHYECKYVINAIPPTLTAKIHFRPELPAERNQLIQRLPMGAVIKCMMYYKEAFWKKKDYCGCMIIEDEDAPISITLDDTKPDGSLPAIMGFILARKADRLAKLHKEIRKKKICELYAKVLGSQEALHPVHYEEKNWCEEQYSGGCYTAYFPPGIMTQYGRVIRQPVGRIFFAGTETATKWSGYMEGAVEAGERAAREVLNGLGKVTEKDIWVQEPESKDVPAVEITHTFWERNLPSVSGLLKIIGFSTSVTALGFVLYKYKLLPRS
Chain of recombinant hSSAO (Q16853 whole entry, canonical isoform): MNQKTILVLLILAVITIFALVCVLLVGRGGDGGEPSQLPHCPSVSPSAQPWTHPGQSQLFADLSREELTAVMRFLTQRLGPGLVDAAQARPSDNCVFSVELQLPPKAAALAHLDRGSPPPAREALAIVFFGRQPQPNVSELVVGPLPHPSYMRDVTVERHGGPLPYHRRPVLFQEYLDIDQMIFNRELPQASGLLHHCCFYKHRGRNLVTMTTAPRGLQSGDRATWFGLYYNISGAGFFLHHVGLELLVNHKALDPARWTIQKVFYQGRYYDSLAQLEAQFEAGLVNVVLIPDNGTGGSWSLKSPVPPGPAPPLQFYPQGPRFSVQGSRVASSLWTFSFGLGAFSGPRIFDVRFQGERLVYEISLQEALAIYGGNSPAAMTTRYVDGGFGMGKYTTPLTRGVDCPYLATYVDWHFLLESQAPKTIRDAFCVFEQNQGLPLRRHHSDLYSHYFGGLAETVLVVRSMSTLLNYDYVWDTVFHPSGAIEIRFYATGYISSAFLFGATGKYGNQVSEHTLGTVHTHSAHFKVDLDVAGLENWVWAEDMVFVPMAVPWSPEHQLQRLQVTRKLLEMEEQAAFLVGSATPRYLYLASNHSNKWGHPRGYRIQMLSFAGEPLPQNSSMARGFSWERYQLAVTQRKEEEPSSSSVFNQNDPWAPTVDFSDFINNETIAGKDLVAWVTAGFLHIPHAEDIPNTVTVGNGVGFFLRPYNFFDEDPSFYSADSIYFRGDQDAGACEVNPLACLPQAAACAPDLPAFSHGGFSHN

As to `N#CC1(CS(=O)(=O)c2ccc(OC/C(=C/F)CN)cc2F)CCOCC1` [compound 13, (E)-4-(((4-((2-(aminomethyl)-3-fluoroallyl)oxy)-2-fluorophenyl)sulfonyl)methyl) tetrahydro-2H-pyran-4-carbonitrile], the results for the IC50 at recombinant hSSAO, on recombinant hMAO-A and on recombinant hMAO-B were 0.02 to 0.1 µM, 10 to 30 µM and 10 to 30 µM, respectively. As for `NC/C(=C\F)COc1ccc(S(=O)(=O)CC2CCN(C(=O)CC(F)(F)F)CC2)c(F)c1` [Compound 59, (E)-1-(4-(((4-((2-(aminomethyl)-3-fluoroallyl)oxy)-2-fluorophenyl)sulfonyl)methyl)piperidin-1-yl)-3,3,3-trifluoropropan-1-one], the IC50 – broadly, the point on the concentration scale where inhibition reaches its midpoint – on recombinant hSSAO was 0.02 to 0.1 µM; on recombinant hMAO-A, above 30 µM; at recombinant hMAO-B, above 30 µM. As to `CC(C)(C)CC(=O)N1CCC(CS(=O)(=O)c2ccc(OC/C(=C/F)CN)cc2)CC1` [Compound 42, (E)-1-(4-(((4-((2-(aminomethyl)-3-fluoroallyl)oxy)phenyl)sulfonyl)methyl)piperidin-1-yl)-3,3-dimethylbutan-1-one], the IC50 was 0.02 to 0.1 µM on recombinant hSSAO, above 30 µM at recombinant hMAO-A and above 30 µM on recombinant hMAO-B. `CS(=O)(=O)N1CCC(CS(=O)(=O)c2ccc(OC/C(=C/F)CN)cc2)CC1` [Compound 38, (E)-3-fluoro-2-((4-(((1-(methylsulfonyl)piperidin-4-yl)methyl)sulfonyl)phenoxy)methyl) prop-2-en-1-amine]: the IC50 on recombinant hSSAO was below 0.02 µM; at recombinant hMAO-A, below 10 µM; at recombinant hMAO-B it was below 10 µM. For the compound `NC/C(=C\F)COc1ccc(S(=O)(=O)CN2CCC3(CCCC3)C2=O)cc1` [Compound 127, (E)-2-(((4-((2-(aminomethyl)-3-fluoroallyl)oxy)phenyl)sulfonyl)methyl)-2-azaspiro[4.4]nonan-1-one], the half-maximal inhibitory concentration (IC50) is 0.1 to 0.5 µM on recombinant hSSAO, above 30 µM on recombinant hMAO-A and below 10 µM at recombinant hMAO-B. As to `CC(C)C(=O)N1CCC(CS(=O)(=O)c2ccc(OC/C(=C/F)CN)cc2)C1` (stereo not drawn) [compound 99, (E)-1-(3-(((4-((2-(aminomethyl)-3-fluoroallyl)oxy)phenyl)sulfonyl)methyl)pyrrolidin-1-yl)-2-methylpropan-1-one], the results for the concentration for half-maximal inhibition (IC50) on recombinant hSSAO and on recombinant hMAO-A were 0.02 to 0.1 µM and 10 to 30 µM, respectively.

Turning to `CC1(C(=O)N2CCN(CS(=O)(=O)c3ccc(OC/C(=C/F)CN)cc3)C(=O)C2)CCC1` [compound 134, (E)-1-(((4-((2-(aminomethyl)-3-fluoroallyl)oxy)phenyl)sulfonyl)methyl)-4-(1-methylcyclobutane-1-carbonyl)piperazin-2-one], the IC50 at recombinant hSSAO lay in the range of 0.1 to 0.5 µM; at recombinant hMAO-A, 10 to 30 µM.

With `NC/C(=C\F)COc1ccc(S(=O)(=O)CC2CCOCC2)c(Cl)c1` [compound 8, (E)-2-((3-chloro-4-(((tetrahydro-2H-pyran-4-yl)methyl)sulfonyl)phenoxy)methyl)-3-fluoroprop-2-en-1-amine], the IC50 on recombinant hSSAO was in the range of 0.02 to 0.1 µM; at recombinant hMAO-A, 10 to 30 µM. The like results for `N#CC1(CS(=O)(=O)c2ccc(OC/C(=C/F)CN)cc2)CCOCC1` [compound 12, (E)-4-(((4-((2-(aminomethyl)-3-fluoroallyl)oxy)phenyl)sulfonyl)methyl)tetrahydro-2H-pyran-4-carbonitrile] were, in that order, 0.02 to 0.1 µM and 10 to 30 µM. In the same order, the values of `CC1(CS(=O)(=O)c2ccc(OC/C(=C/F)CN)cc2)CCN(C(=O)C2(C)CC2)CC1` [compound 57, (E)-(4-(((4-((2-(aminomethyl)-3-fluoroallyl)oxy)phenyl)sulfonyl)methyl)-4-methylpiperidin-1-yl)(1-methylcyclopropyl)methanone] are 0.02 to 0.1 µM and 10 to 30 µM. In the case of `COCS(=O)(=O)c1ccc(OC/C(=C/F)CN)cc1` [compound 28, (E)-3-fluoro-2-((4-((methoxymethyl)sulfonyl)phenoxy)methyl)prop-2-en-1-amine], the IC50 on recombinant hMAO-B lay within 10 to 30 µM. With `CC(C)(C)C(=O)N1CCN(CS(=O)(=O)c2ccc(OC/C(=C/F)CN)cc2)C(=O)C1` [compound 133, (E)-1-(((4-((2-(aminomethyl)-3-fluoroallyl)oxy)phenyl)sulfonyl)methyl)-4-pivaloylpiperazin-2-one], the IC50 lay in the range of 0.1 to 0.5 µM at recombinant hSSAO and 10 to 30 µM at recombinant hMAO-A. For `CC(C)C(=O)N(C)CC(C)(C)CS(=O)(=O)c1ccc(OC/C(=C/F)CN)cc1` [compound 96, (E)-N-(3-((4-((2-(aminomethyl)-3-fluoroallyl)oxy)phenyl)sulfonyl)-2,2-dimethylpropyl)-N-methylisobutyramide], on recombinant hMAO-B, the IC50 is 10 to 30 µM.

As for `CC1CCN(C23CCC(CS(=O)(=O)c4ccc(OC/C(=C/F)CN)cc4)(CC2)CC3)C1=O` (stereo not drawn) [compound 83, (E)-1-(4-(((4-((2-(aminomethyl)-3-fluoroallyl)oxy)phenyl)sulfonyl)methyl)bicyclo[2.2.2]octan-1-yl)-3-methylpyrrolidin-2-one], the IC50 at recombinant hMAO-B fell in the range of 10 to 30 µM. On to `NC/C(=C\F)COc1ccc(S(=O)(=O)COCC2CCN(C(=O)C3(C(F)(F)F)CC3)CC2)cc1` [compound 35, (E)-(4-((((4-((2-(aminomethyl)-3-fluoroallyl)oxy)phenyl)sulfonyl)methoxy)methyl)piperidin-1-yl)(1-(trifluoromethyl)cyclopropyl)methanone], for which the IC50 on recombinant hSSAO fell in the range of 0.02 to 0.1 µM; at recombinant hMAO-B, 10 to 30 µM. For `NC/C(=C\F)COc1ccc(S(=O)(=O)CC23CCC(NC(=O)C4CC4)(CC2)CC3)cc1` [compound 76, (E)-N-(4-(((4-((2-(aminomethyl)-3-fluoroallyl)oxy)phenyl)sulfonyl)methyl)bicyclo[2.2.2]octan-1-yl)cyclopropanecarboxamide], the IC50 on recombinant hMAO-B was in the range of 10 to 30 µM. The same measure, in the same setting: as for `NC/C(=C\F)COc1ccc(S(=O)(=O)CC23CCC(C4(O)CC4)(CC2)CC3)cc1` [compound 18, (E)-1-(4-(((4-((2-(aminomethyl)-3-fluoroallyl)oxy)phenyl)sulfonyl)methyl)bicyclo[2.2.2]octan-1-yl)cyclopropan-1-ol], the figure is 10 to 30 µM. For the compound `CC(C)(C)C(=O)NC12CCC(CS(=O)(=O)c3ccc(OC/C(=C/F)CN)cc3)(CC1)C2` [compound 145, (E)-N-(4-(((4-((2-(aminomethyl)-3-fluoroallyl)oxy)phenyl)sulfonyl)methyl)bicyclo[2.2.1]heptan-1-yl)pivalamide], the IC50 fell in the range of 0.02 to 0.1 µM at recombinant hSSAO and 10 to 30 µM on recombinant hMAO-B.

As to `NC/C(=C\F)COc1ccc(S(=O)(=O)CC23CCC(O)(CC2)CC3)cc1` [compound 17, (E)-4-(((4-((2-(aminomethyl)-3-fluoroallyl)oxy)phenyl)sulfonyl)methyl)bicyclo[2.2.2]octan-1-ol], the values for the IC50 at recombinant hSSAO and at recombinant hMAO-B were 0.02 to 0.1 µM and 10 to 30 µM, respectively. Consider `CC1(COCS(=O)(=O)c2ccc(OC/C(=C/F)CN)cc2)CCN(C(=O)C(C)(C)C)CC1` [compound 34, (E)-1-(4-((((4-((2-(aminomethyl)-3-fluoroallyl)oxy)phenyl)sulfonyl)methoxy)methyl)-4-methylpiperidin-1-yl)-2,2-dimethylpropan-1-one], for which the 50% inhibitory concentration (IC50) at recombinant hSSAO was in the range of 0.02 to 0.1 µM. Turning to `NC/C(=C\F)COc1ccc(S(=O)(=O)CC2CCN(C(=O)C34CC(F)(C3)C4)CC2)cc1` [compound 40, (E)-(4-(((4-((2-(aminomethyl)-3-fluoroallyl)oxy)phenyl)sulfonyl)methyl)piperidin-1-yl)(3-fluorobicyclo[1.1.1]pentan-1-yl)methanone], the IC50 lay in the range of 0.02 to 0.1 µM on recombinant hSSAO and 10 to 30 µM at recombinant hMAO-A.

On to `NC/C(=C\F)COc1ccc(S(=O)(=O)Cc2ccc(C(=O)NC3CCC3)c(C(F)(F)F)c2)cc1` [compound 89, (E)-4-(((4-((2-(aminomethyl)-3-fluoroallyl)oxy)phenyl)sulfonyl)methyl)-N-cyclobutyl-2-(trifluoromethyl)benzamide], for which the IC50 lay within 0.1 to 0.5 µM on recombinant hSSAO and 10 to 30 µM at recombinant hMAO-B. For `CC(C)n1ccc(CS(=O)(=O)c2ccc(OC/C(=C/F)CN)cc2)cc1=O` [compound 101, (E)-4-(((4-((2-(aminomethyl)-3-fluoroallyl)oxy)phenyl)sulfonyl)methyl)-1-isopropylpyridin-2(1H)-one], the IC50 on recombinant hSSAO was in the range of 0.02 to 0.1 µM.

For the compound `CCN(CC(C)(C)CS(=O)(=O)c1ccc(OC/C(=C/F)CN)cc1)C(=O)C(C)C` [compound 98, (E)-N-(3-((4-((2-(aminomethyl)-3-fluoroallyl)oxy)phenyl)sulfonyl)-2,2-dimethylpropyl)-N-ethylisobutyramide], the results for the 50% inhibitory concentration (IC50) at recombinant hSSAO and at recombinant hMAO-B were 0.02 to 0.1 µM and 10 to 30 µM, respectively.

For `NC/C(=C\F)COc1ccc(S(=O)(=O)COC2CCN(C(=O)C3CCCC3)CC2)cc1` [compound 27, (E)-(4-(((4-((2-(aminomethyl)-3-fluoroallyl)oxy)phenyl)sulfonyl)methoxy)piperidin-1-yl)(cyclopentyl)methanone], the IC50 on recombinant hSSAO fell in the range of 0.02 to 0.1 µM. Take `NC/C(=C\F)COc1ccc(S(=O)(=O)CC23CCC(C(=O)NC4CCC4)(CC2)CC3)cc1` [compound 64, (E)-4-(((4-((2-(aminomethyl)-3-fluoroallyl)oxy)phenyl)sulfonyl)methyl)-N-cyclobutylbicyclo[2.2.2]octane-1-carboxamide]: the IC50 at recombinant hMAO-B was in the range of 10 to 30 µM.
